Patent US20240043859A1, “HERBICIDE-RESISTANT PROTEIN, AND GENE AND USE THEREOF” (QINGDAO KINGAGROOT CHEMICAL COMPOUND CO., LTD., priority 2020, published 2024)
Entries after “also recorded” stand apart in the source; their conditions may differ.

Tests used:
Arabidopsis thaliana [1] = assay: Herbicide resistance of transgenic Arabidopsis thaliana seedlings on plate medium (root growth); type: in vivo; conditions: plate medium: 2,4-D 0.3 μmol; 2,4-DB sodium 0.7 μmol; MCPA 0.1 μmol
Procedure: Expression in Arabidopsis thaliana was regulated by its AtUbi10 Arabidopsis thaliana ubiquitin promoter and the MAS (mannopine synthase) terminator. Hygromycin resistance gene (HygR=hpt) served as the selection marker.
Preparation of Agrobacterium infection solution: An activated Agrobacterium (GV3101) monoclone was picked and inoculated in 30 ml YEP liquid medium [yeast powder 10 g/L, tryptone 10 g/L, NaCl 5 g/L, 25 mg/L Rifampicin and 50 mg/L Kanamycin], shaking-cultured at 200 rmp/min, 28° C. overnight until the OD600 was about 1.0-1.5, then centrifuged at 6000 rmp/min for 10 min to collect the bacteria, and the supernatant was discarded. Arabidopsis thaliana infection solution (sucrose 50 g/L, Silwet L-77 300 μL/L, no need to adjust pH) was used to resuspend the cells to OD600=0.8 for later use.
Genetic transformation of Arabidopsis thaliana by flower dipping: Before transformation of Arabidopsis thaliana plants, attentions were paid to whether the plants were growing well, the inflorescences were abundant, and no stress response occurred. The first transformation was performed when plants were about 20 cm high. Plants could be properly watered if the soil was dry. The grown siliques were cut off with scissors the day before transformation. The inflorescences of the plants to be transformed were soaked in the above-mentioned Agrobacterium solution for 30 seconds to 1 minute, which was stirred gently during the period. And a layer of liquid film should appear on the infiltrated plant. The transformed plants were cultured in a dark environment for 24 hours, and then taken out and grown in a normal light environment. A second transformation could be performed in the same way a week later. […]

Arabidopsis thaliana [2] = assay: Spray testing of T2 generation transgenic Arabidopsis thaliana; type: in vivo; conditions: 100 g/ha foliage spray, 10 days after spraying
Text: The T2 generation seedlings of four representative transformants, pQY2309, pQY2310, pQY2311 and pQY2313, were selected for further spray testing. Four lines were randomly selected from the T2 generation generated by transformation of each vector, and respectively foliage-sprayed with 2,4-D (100 g/ha), MCPA (100 g/ha) and 2,4-DB sodium (100 g/ha) when Arabidopsis thaliana seeds germinated, transplanted and the seedlings grew to 5-7 leaf. Non-transgenic wild-type Col-0 served as a negative control. The level of resistance was assessed 10 days after spraying.

AAD-12 = biological target: T1, AAD-12 (Delftia acidovorans, UniProt P83309); assay: Degradation activities of AAD-12 on phenoxy acetic acid herbicides by spectrophotometry (A510); type: biochemical, Comamonas acidovorans; conditions: for A510 of reaction group, Reaction 1 / A510 of reaction group, Reaction 2 / A510 of reaction group, Reaction 3: AAD-12 enzyme with substrate, chromogenic detection at 510 nm; for Increased A510: reaction group versus blank group
T1 construct: made in house; host or cells: E. coli BL21(DE3)
T1 sequence (P83309 2-292, added parts left off): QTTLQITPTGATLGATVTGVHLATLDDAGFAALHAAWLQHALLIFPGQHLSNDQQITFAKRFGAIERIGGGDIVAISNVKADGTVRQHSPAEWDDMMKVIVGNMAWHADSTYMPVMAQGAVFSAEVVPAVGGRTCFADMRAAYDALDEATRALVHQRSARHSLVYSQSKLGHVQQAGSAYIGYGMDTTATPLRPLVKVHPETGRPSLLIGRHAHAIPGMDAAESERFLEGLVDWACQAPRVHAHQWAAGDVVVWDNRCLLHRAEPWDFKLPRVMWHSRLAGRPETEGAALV
Procedure: As reported in literature (Fukomori and Flausinger, Purification and characterization of 2,4-dichlorophenoxyacetate/alpha-ketoglutarate dioxygenase Journal of Biological Chemistry (1993) 268(32): 24311-24317), the constructed expression vector pET15b-AAD12 was transformed into E. coli BL21(DE3) and induced by IPTG for expression. After cells were collected and lysed, Ni-NTA column was used for purification and the purity of the protein was analyzed by SDS-PAGE.
Since phenolic products were produced by AAD-12-substrate catalytic reaction, 4-aminoantipyrine and potassium ferricyanide could be used to develop color with the products in an alkaline environment to generate red products with absorption at 510 nm, and the relevant parameters were directly read with a microplate reader.

| Compound | Effect of the herbicide on seminal roots of wild-type Col-0 (Arabidopsis thaliana [1]) | Effect of the herbicide spray on wild-type Col-0 (Arabidopsis thaliana [2]) | Degradation activity of expressed AAD-12 enzyme on the substrate (AAD-12) | A510 of reaction group, Reaction 1 (AAD-12) | A510 of reaction group, Reaction 2 (AAD-12) | Increased A510 (AAD-12) | A510 of reaction group, Reaction 3 (AAD-12) |
| --- | --- | --- | --- | --- | --- | --- | --- |
| O=C([O-])CCCOc1ccc(Cl)cc1Cl.[Na+] [2,4-DB sodium, reference compound] | seminal roots are inhibited; also recorded: seminal roots are not able to grow | all or almost all non-transgenic wild-type Arabidopsis thaliana died; also recorded: severely injured |  |  |  |  |  |
| Cc1cc(Cl)ccc1OCC(=O)O [MCPA, (4-chloro-2-methylphenoxy)acetic acid] | seminal roots are inhibited; also recorded: seminal roots are not able to grow | all or almost all non-transgenic wild-type Arabidopsis thaliana died; also recorded: all die | degradation activities | 0.1998 | 0.2076 | +0.035 |  |
| O=C(O)CCCOc1ccc(Cl)cc1Cl [2,4-DB, 4-(2,4-dichlorophenoxy)butanoic acid] |  |  | degradation activities | 0.1373 | 0.1326 | +0.017 | 0.1345 |
| CC(C)CCCCCOC(=O)COc1ccc(Cl)cc1Cl [2,4-D isooctyl ester] |  |  | degradation activities | 0.1570 | 0.1578 | +0.019 | 0.1497 |
